Source: the supplement of paper PMC11061612

Experiments:
[1] = test system: CL-11 (Colorectal Carcinoma); experiment: combination Emax (second highest fraction inhibited in the dose matrix, 72 h); higher = more inhibition; extreme values may be limits of the assay
How it was run: (§1)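 Cell lines grown in DMEM/F12 or RPMI with 10% FBS were plated in 1536-well plates and held 24 hours at 37°C, 5% CO2 before 72 hours of exposure to two-drug dose matrices, with DMSO typically at 0.2%. CellTiter-Glo 2.0 luminescence gave viability, which was converted to inhibition. Vehicle wells were set to 0 and blank wells to 1. Combination Emax is the second-highest inhibition in the matrix, and Bliss excess is the observed combination effect minus the expected EA + EB − EA·EB, where EA and EB are the single-agent effects.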

[2] = test system: CPC-N (Small Cell Lung Carcinoma); experiment: as above
How it was run: as §1

[3] = test system: NCI-H1876 (Small Cell Lung Carcinoma); experiment: as above
How it was run: as §1

[4] = test system: NCI-H1341 (Small Cell Lung Carcinoma); experiment: as above
How it was run: as §1

[5] = test system: T84 (Colorectal Carcinoma); experiment: as above
How it was run: as §1

[6] = test system: Raji (Burkitt's Lymphoma); experiment: as above
How it was run: as §1

[7] = test system: SNU-C2B (Colorectal Carcinoma); experiment: as above
How it was run: as §1

[8] = test system: SAT (Head and Neck Carcinoma); experiment: as above
How it was run: as §1

[9] = test system: SiHa (Cervical Carcinoma); experiment: as above
How it was run: as §1

SK-N-SH (Neuroblastoma) = experiment: as above
How it was run: as §1

[10] = test system: LS-1034 (Colorectal Carcinoma); experiment: as above
How it was run: as §1

[11] = test system: OVCAR-3 (Ovarian Carcinoma); experiment: as above
How it was run: as §1

[12] = test system: HT-1080 (Other Solid Carcinomas); experiment: as above
How it was run: as §1

[13] = test system: C-33-A (Cervical Carcinoma); experiment: as above
How it was run: as §1

[14] = test system: OAW-28 (Ovarian Carcinoma); experiment: as above
How it was run: as §1

[15] = test system: DBTRG-05MG (Glioblastoma); experiment: as above
How it was run: as §1

[16] = test system: MM1S (Plasma Cell Myeloma); experiment: as above
How it was run: as §1

[17] = test system: NCI-H1341 (Small Cell Lung Carcinoma); experiment: Bliss excess, mean over the matrix (fraction); higher = more synergy
How it was run: as §1

[18] = test system: SNU-423 (Hepatocellular Carcinoma); experiment: as above
How it was run: as §1

[19] = test system: LCLC-103H (Non-Small Cell Lung Carcinoma); experiment: as above
How it was run: as §1
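Throughout, for Bliss excess, mean over the matrix: after 72 h of two-drug dosing.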

SMILES	combination Emax [1]	combination Emax [2]	combination Emax [3]	combination Emax [4]	combination Emax [5]	combination Emax [6]	combination Emax [7]	combination Emax [8]	combination Emax [9]	combination Emax (SK-N-SH (Neuroblastoma))	combination Emax [10]	combination Emax [11]	combination Emax [12]	combination Emax [13]	combination Emax [14]	combination Emax [15]	combination Emax [16]	Bliss excess [17]	Bliss excess [18]	Bliss excess [19]
CCN(CCO)CCCOc1ccc2c(Nc3cc(CC(=O)Nc4cccc(F)c4)[nH]n3)ncnc2c1 [AZD2811] + C[C@@H]1COCCN1C2=NC(=NC(=C2)C3(CC3)[S@](=N)(=O)C)C4=C5C=CNC5=NC=C4 [AZD6738] (first compound max 1 µM, 7x7, partner max 10 µM)	0.777	0.961	0.963	0.733	0.675	0.691	0.655	0.276	0.225	0.906	0.64	0.221	0.336	0.87	0.396	0.236	0.646	0.0028	-0.0386	-0.119
CC1(C)CCC(CN2CCN(c3ccc(C(=O)NS(=O)(=O)c4ccc(NCC5CCOCC5)c([N+](=O)[O-])c4)c(Oc4cnc5[nH]ccc5c4)c3)CC2)=C(c2ccc(Cl)cc2)C1 [Venetoclax] + C1CN(CCC1(C(=O)N[C@@H](CCO)C2=CC=C(C=C2)Cl)N)C3=NC=NC4=C3C=CN4 [Capivasertib] (first compound max 1 µM, 7x7, partner max 3 µM)	0.162	0.84	0.259	0.551	0.168	0.132	0.25	0.377	0.282	0.394	0.207	0.161	0.127	0.547	0.134	0.209	0.978	0.0321	-0.0386	-0.0756
